Results: patent US20240199623A1 (ILDONG PHARMACEUTICAL CO., LTD., priority 2020, published 2024)

Target: human wild type-CFTR (Homo sapiens, UniProt P13569)
Test: Cell-based YFP assay
Parameters: expressed in transfected cells; host or cells: CHO-K1 (Chinese hamster ovary)
Conditions: CHO-K1 cells expressing human wild type-CFTR and YFP-H148Q/I152L; forskolin 20 μM = 100% activity; read-out: Cell-based YFP Assay (EC50) Concentration Range
Outline: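 I⁻-driven YFP fluorescence quenching at 37 °C: 2 s baseline, addition of 140 mM iodide solution, then 14 s of readings at 0.4 s intervals. Cells were CHO-K1 expressing human wild-type CFTR plus YFP-H148Q/I152L. EC50 derived from averaged triplicates.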

Chain of human wild type-CFTR (P13569 whole entry): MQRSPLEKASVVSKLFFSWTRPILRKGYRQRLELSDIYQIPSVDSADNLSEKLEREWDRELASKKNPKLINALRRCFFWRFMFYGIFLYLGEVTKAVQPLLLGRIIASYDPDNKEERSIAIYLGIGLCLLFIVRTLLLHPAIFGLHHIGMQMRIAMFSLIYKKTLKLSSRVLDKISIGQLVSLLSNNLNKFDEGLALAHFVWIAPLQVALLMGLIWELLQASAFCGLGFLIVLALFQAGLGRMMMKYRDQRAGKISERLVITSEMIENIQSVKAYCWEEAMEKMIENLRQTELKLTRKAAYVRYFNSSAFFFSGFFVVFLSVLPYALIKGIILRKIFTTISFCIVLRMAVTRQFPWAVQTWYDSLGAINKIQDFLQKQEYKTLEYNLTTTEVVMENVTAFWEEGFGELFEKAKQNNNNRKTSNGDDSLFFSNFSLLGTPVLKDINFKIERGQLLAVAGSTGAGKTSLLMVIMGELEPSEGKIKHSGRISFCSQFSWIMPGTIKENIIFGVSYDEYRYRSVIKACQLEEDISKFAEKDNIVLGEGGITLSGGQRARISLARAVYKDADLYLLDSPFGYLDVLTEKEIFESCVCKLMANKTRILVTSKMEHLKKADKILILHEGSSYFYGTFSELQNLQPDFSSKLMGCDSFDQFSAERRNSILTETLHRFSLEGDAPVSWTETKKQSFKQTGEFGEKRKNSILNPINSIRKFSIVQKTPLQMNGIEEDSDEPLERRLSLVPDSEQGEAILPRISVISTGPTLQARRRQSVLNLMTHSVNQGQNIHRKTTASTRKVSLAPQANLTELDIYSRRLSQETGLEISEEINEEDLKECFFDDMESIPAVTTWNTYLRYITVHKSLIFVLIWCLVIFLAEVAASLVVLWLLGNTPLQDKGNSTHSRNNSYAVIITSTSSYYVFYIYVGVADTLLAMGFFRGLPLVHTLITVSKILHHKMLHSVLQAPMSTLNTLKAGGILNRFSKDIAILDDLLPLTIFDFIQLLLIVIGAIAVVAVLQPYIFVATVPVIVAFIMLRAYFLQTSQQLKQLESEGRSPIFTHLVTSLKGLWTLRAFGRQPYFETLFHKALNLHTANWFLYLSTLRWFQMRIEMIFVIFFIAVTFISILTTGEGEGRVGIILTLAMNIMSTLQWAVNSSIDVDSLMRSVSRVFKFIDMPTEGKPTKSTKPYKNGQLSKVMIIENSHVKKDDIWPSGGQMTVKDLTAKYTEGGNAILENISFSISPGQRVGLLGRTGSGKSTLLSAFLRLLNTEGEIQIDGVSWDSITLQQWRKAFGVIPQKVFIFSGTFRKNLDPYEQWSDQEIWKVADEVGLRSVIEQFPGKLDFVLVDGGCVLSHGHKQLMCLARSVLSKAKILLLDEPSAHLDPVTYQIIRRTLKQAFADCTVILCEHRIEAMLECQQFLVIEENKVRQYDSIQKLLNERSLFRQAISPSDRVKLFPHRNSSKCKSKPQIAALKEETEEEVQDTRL

EC50 [nM]	Compound
≥ 2000	COc1ccc(-c2ccnc3cc(C(=O)NC45CC(NC(=O)N6CCOCC6)(C4)C5)nn23)cc1OC [Compound 138, N-(3-(7-(3,4-dimethoxyphenyl)pyrazolo[1,5-a]pyrimidine-2-carboxamido)bicyclo [1.1.1]pentan-1-yl)morpholine-4-carboxamide]
≥ 2000	COc1ccc(-c2ccnc3cc(C(=O)Nc4ccc(C(=O)O)c(C)c4)nn23)cc1OC [Compound 213, 4-(7-(3,4-dimethoxyphenyl)pyrazolo[1,5-a]pyrimidine-2-carboxamido)-2-methylbenzoic acid]
< 200	CCC[C@H]1CN(C(=O)c2cc3nccc(-c4ccc(OC)c(OC)c4)n3n2)CCN1C(=O)c1ccccc1 [Compound 377, (S)-(4-benzoyl-3-propylpiperazin-1-yl) (7-(3,4-dimethoxyphenyl)pyrazolo [1,5-a]pyrimidin-2-yl)methanone]
< 200	COc1ccc(-c2ccnc3cc(C(=O)Nc4ccc(C(=O)N5CCN(c6ccccn6)CC5)cc4)nn23)cc1OC [Compound 338, 7-(3,4-dimethoxyphenyl)-N-(4-(4-(pyridin-2-yl)piperazine-1-carbonyl)phenyl)pyrazolo[1,5-a]pyrimidine-2-carboxamide]
≥ 2000	COc1ccc(-c2ccnc3cc(C(=O)N[C@H]4CC[C@H](C(=O)N5CCN(C)CC5)CC4)nn23)cc1OC [Compound 241, 7-(3,4-dimethoxyphenyl)-N-((1r,4r)-4-(4-methylpiperazine-1-carbonyl)cyclohexyl) pyrazolo[1,5-a]pyrimidine-2-carboxamide]
200 to 2000	COc1ccc(-c2ccnc3cc(C(=O)N4CCN[C@@H](C5CC5)C4)nn23)cc1OC [Compound 374, (S)-(3-cyclopropylpiperazin-1-yl)(7-(3,4-dimethoxyphenyl)pyrazolo [1,5-a]pyrimidin-2-yl)methanone]
≥ 2000	COc1ccc(-c2ccnc3cc(C(=O)N4CC[C@@H](O)C4)nn23)cc1OC [Compound 150, (R)-(7-(3,4-dimethoxyphenyl)pyrazolo[1,5-a]pyrimidin-2-yl)(3-hydroxypyrrolidin-1-yl)methanone]
< 200	COc1ccc(-c2ccnc3cc(C(=O)N4CCN(C(=O)c5ccsc5)[C@@H](C)C4)nn23)cc1OC [Compound 379, (S)-(7-(3,4-dimethoxyphenyl)pyrazolo[1,5-a]pyrimidin-2-yl)(3-methyl-4-(thiophene-3-carbonyl)piperazin-1-yl)methanone]
200 to 2000	COc1ccc(-c2ccnc3cc(C(=O)N4CCc5ccc(C(=O)N6CCOCC6)cc54)nn23)cc1OC [Compound 253, (7-(3,4-dimethoxyphenyl)pyrazolo[1,5-a]pyrimidin-2-yl)(6-(morpholine-4-carbonyl)indolin-1-yl) methanone]
< 200	COc1ccc(-c2ccnc3cc(C(=O)Nc4ccc5c(c4)OCO5)nn23)cc1OC [Compound 310, N-(benzo[d][1,3]dioxol-5-yl)-7-(3,4-dimethoxyphenyl)pyrazolo[1,5-a]pyrimidine-2-carboxamide]
≥ 2000	COc1ccc(-c2ccnc3cc(C(=O)NC4(C(=O)O)CC4)nn23)cc1OC [Compound 29, 1-(7-(3,4-dimethoxyphenyl)pyrazolo[1,5-a]pyrimidine-2-carboxamido) cyclopropane-1-carboxylic acid]
200 to 2000	COc1ccc(-c2ccnc3cc(C(=O)N4CCN(c5ncccn5)CC4)nn23)cc1OC [Compound 185, (7-(3,4-dimethoxyphenyl)pyrazolo[1,5-a]pyrimidin-2-yl)(4-(pyrimidin-2-yl)piperazin-1-yl)methanone]
< 200	COc1ccc(-c2ccnc3cc(C(=O)NC45CCC(C(=O)OCCCN6CCOCC6)(CC4)CC5)nn23)cc1OC [Compound 255, 3-morpholinopropyl 4-(7-(3,4-dimethoxyphenyl)pyrazolo [1,5-a]pyrimidine-2-carboxamido)bicyclo[2.2.2] octane-1-carboxylate]
≥ 2000	CCOc1ccc(NC(=O)c2cc3nccc(-c4cc(OC)c(OC)cc4C)n3n2)cc1 [Compound 339, 7-(4,5-dimethoxy-2-methylphenyl)-N-(4-ethoxyphenyl)pyrazolo [1,5-a]pyrimidine-2-carboxamide]
≥ 2000	COc1ccc(-c2ccnc3cc(C(=O)Nc4ccc(C(=O)NCCCN5CCCC5)cc4)nn23)cc1OC [Compound 224, 7-(3,4-dimethoxyphenyl)-N-(4-((3-(pyrrolidin-1-yl)propyl)carbamoyl)phenyl)pyrazolo[1,5-a]pyrimidine-2-carboxamide]
≥ 2000	COc1ccc(-c2ccnc3cc(C(=O)N4CCN(C)[C@@H](C)C4)nn23)cc1OC [Compound 208, (S)-(7-(3,4-dimethoxyphenyl)pyrazolo [1,5-a]pyrimidin-2-yl)(3,4-dimethylpiperazin-1-yl)methanone]
≥ 2000	COC(=O)c1ccc(NC(=O)c2cc3nccc(-c4ccccc4)n3n2)cc1 [Compound 305, methyl 4-(7-phenylpyrazolo[1,5-a]pyrimidine-2-carboxamido)benzoate]

EC50 [nM]	Compound
200 to 2000	COc1ccc(-c2ccnc3cc(C(=O)N4C[C@H](C)NC[C@@H]4C)nn23)cc1OC [Compound 362, (7-(3,4-dimethoxyphenyl)pyrazolo[1,5-a]pyrimidin-2-yl) ((2S,5S)-2,5-dimethylpiperazin-1-yl)methanone]
≥ 2000	COc1ccc(-c2ccnc3cc(C(=O)NC4CCN(C(=O)CO)CC4)nn23)cc1OC [Compound 91, 7-(3,4-dimethoxyphenyl)-N-(1-(2-hydroxyacetyl)piperidin-4-yl)pyrazolo[1,5-a]pyrimidine-2-carboxamide]
≥ 2000	COc1ccc(-c2ccnc3cc(C(=O)Nc4ccc(C(=O)O)c(Cl)c4)nn23)cc1OC [Compound 279, 2-chloro-4-(7-(3,4-dimethoxyphenyl)pyrazolo [1,5-a]pyrimidine-2-carboxamido)benzoic acid]
≥ 2000	COc1ccc(-c2ccnc3cc(C(=O)Nc4ccc(C(=O)N5CCOCC5)c(OC)c4)nn23)cc1OC [Compound 217, 7-(3,4-dimethoxyphenyl)-N-(3-methoxy-4-(morpholine-4-carbonyl)phenyl)pyrazolo [1,5-a] pyrimidine-2-carboxamide]
≥ 2000	CCOc1ccc(NC(=O)c2cc3nccc(-c4ccc(F)c(C)c4)n3n2)cc1 [Compound 302, N-(4-ethoxyphenyl)-7-(4-fluoro-3-methylphenyl)pyrazolo [1,5-a]pyrimidine-2-carboxamide]
200 to 2000	COc1ccc(-c2ccnc3cc(C(=O)N4CCN(C(=O)c5ccccc5)C(C)(C)C4)nn23)cc1OC [Compound 211, (4-benzoyl-3,3-dimethylpiperazin-1-yl) (7-(3,4-dimethoxyphenyl)pyrazolo [1,5-a]pyrimidin-2-yl)methanone]
≥ 2000	COc1ccc(-c2ccnc3cc(C(=O)Nc4cc(C(F)(F)F)cc(C(F)(F)F)c4)nn23)cc1OC [Compound 291, N-(3,5-bis(trifluoromethyl)phenyl)-7-(3,4-dimethoxyphenyl)pyrazolo [1,5-a]pyrimidine-2-carboxamide]
≥ 2000	COc1ccc(-c2ccnc3cc(C(=O)N4CCN[C@H](C)C4)nn23)cc1OC [Compound 322, (R)-(7-(3,4-dimethoxyphenyl)pyrazolo[1,5-a]pyrimidin-2-yl)(3-methylpiperazin-1-yl)methanone]
≥ 2000	COc1ccc(-c2ccnc3cc(C(=O)N[C@H]4CC[C@H](N5CCOCC5)CC4)nn23)cc1OC [Compound 345, 7-(3,4-dimethoxyphenyl)-N-((1R,4R)-4-morpholinocyclohexyl) pyrazolo[1,5-a]pyrimidine-2-carboxamide]
200 to 2000	CCC[C@H]1CN(C(=O)c2cc3nccc(-c4ccc(OC)c(OC)c4)n3n2)CCN1 [Compound 373, (S)-(7-(3,4-dimethoxyphenyl)pyrazolo[1,5-a]pyrimidin-2-yl)(3-propylpiperazin-1-yl)methanone]
200 to 2000	COc1ccc(-c2ccnc3cc(C(=O)N[C@H]4CC[C@@H](C(=O)OCCCN5CCOCC5)CC4)nn23)cc1OC [Compound 196, 3-morpholinopropyl (1s,4s)-4-(7-(3,4-dimethoxyphenyl)pyrazolo [1,5-a]pyrimidine-2-carboxamido)cyclohexane-1-carboxylate]
< 200	COC(=O)c1ccc(NC(=O)c2cc3nccc(-c4ccc(OC)c(OC)c4)n3n2)cc1C [Compound 191, methyl 4-(7-(3,4-dimethoxyphenyl)pyrazolo [1,5-a]pyrimidine-2-carboxamido)-2-methylbenzoate]
≥ 2000	COc1ccc(-c2ccnc3cc(C(=O)N4CC(C)NC(C)C4)nn23)cc1OC (stereo not shown) [Compound 347, (7-(3,4-dimethoxyphenyl)pyrazolo[1,5-a]pyrimidin-2-yl)(3,5-dimethylpiperazin-1-yl)methanone]
200 to 2000	COc1ccc(-c2ccnc3cc(C(=O)N4CCN(Cc5ccccc5)C(C)(C)C4)nn23)cc1OC [Compound 207, (4-benzyl-3,3-dimethylpiperazin-1-yl)(7-(3,4-dimethoxyphenyl)pyrazolo [1,5-a]pyrimidin-2-yl)methanone]
200 to 2000	CCOc1ccc(NC(=O)c2cc3nccc(-c4ccc(F)c(OC)c4)n3n2)cc1 [Compound 307, N-(4-ethoxyphenyl)-7-(4-fluoro-3-methoxyphenyl)pyrazolo [1,5-a]pyrimidine-2-carboxamide]
≥ 2000	CCN(CC)CCNC(=O)c1ccc(NC(=O)c2cc3nccc(-c4ccc(OC)c(OC)c4)n3n2)cc1 [Compound 221, N-(4-((2-(diethylamino)ethyl)carbamoyl)phenyl)-7-(3,4-dimethoxyphenyl)pyrazolo [1,5-a]pyrimidine-2-carboxamide]
≥ 2000	COc1ccc(-c2ccnc3cc(C(=O)Nc4ccc(C(=O)N[C@@H](CO)C(=O)O)cc4)nn23)cc1OC [Compound 45, (4-(7-(3,4-dimethoxyphenyl)pyrazolo[1,5-a]pyrimidine-2-carboxamido)benzoyl)-L-serine]
